Source: ChEMBL document CHEMBL1144060, “Tetrin C, a new glycosylated polyene macrolide antibiotic produced by Streptomyces sp. GK9244” (J Nat Prod, 1999)
In brackets after ≈: the same amount, converted by molar mass.

How the values were obtained:
Penicillium chrysogenum = assay: Antifungal activity against Penicillium chrysogenum; type: functional
P388 = assay: Cytotoxicity against mouse P388 cells; type: functional, cell-based
Candida albicans = assay: Antifungal activity against Candida albicans; type: functional
Umbelopsis ramanniana = assay: Antifungal activity against Mortierella ramanniana; type: functional

Question: Which MIC (Penicillium chrysogenum) does the source give for `C[C@H]1/C=C/C=C/C=C/C=C/[C@H](O[C@@H]2O[C@H](C)[C@@H](O)[C@H](N)[C@@H]2O)C[C@@H]2O[C@](O)(C[C@@H](O)CC(=O)C(=O)/C=C/C(=O)O[C@@H]1C)C[C@H](O)[C@H]2C(=O)O` [TETRIN C] here?
Answer: The MIC was 10 µg/mL (≈ 14.4 µM).

Question: What about the IC50 (P388) of the same compound?
Answer: The IC50 was 4.6 µg/mL (≈ 6.63 µM).

Question: And the MIC (Candida albicans)?
Answer: Its MIC is 10 µg/mL (≈ 14.4 µM).

Question: What about the MIC (Umbelopsis ramanniana) of the same compound?
Answer: Its MIC is 5 µg/mL (≈ 7.21 µM).
